# Measured values from publication PMC7938888, “Antidepressant drugs act by directly binding to TRKB neurotrophin receptors” (Cell, 2021).
# Entries after “also recorded” stand apart in the source; their conditions may differ.
# Experiments:
# TRKB = TRKB (Mus musculus, UniProt P15209); assay: Cell-free ligand binding assay on immobilised TRKB from HEK293T lysates; design: wild-type GFP-tagged full length TRKB or the GFP-tagged Y433F TRKB mutant; host or cells: HEK293T; settings: for displacement of biotinylated FLX from TRKB: biotinylated FLX 1 μM
# Chain of TRKB (P15209 32-821): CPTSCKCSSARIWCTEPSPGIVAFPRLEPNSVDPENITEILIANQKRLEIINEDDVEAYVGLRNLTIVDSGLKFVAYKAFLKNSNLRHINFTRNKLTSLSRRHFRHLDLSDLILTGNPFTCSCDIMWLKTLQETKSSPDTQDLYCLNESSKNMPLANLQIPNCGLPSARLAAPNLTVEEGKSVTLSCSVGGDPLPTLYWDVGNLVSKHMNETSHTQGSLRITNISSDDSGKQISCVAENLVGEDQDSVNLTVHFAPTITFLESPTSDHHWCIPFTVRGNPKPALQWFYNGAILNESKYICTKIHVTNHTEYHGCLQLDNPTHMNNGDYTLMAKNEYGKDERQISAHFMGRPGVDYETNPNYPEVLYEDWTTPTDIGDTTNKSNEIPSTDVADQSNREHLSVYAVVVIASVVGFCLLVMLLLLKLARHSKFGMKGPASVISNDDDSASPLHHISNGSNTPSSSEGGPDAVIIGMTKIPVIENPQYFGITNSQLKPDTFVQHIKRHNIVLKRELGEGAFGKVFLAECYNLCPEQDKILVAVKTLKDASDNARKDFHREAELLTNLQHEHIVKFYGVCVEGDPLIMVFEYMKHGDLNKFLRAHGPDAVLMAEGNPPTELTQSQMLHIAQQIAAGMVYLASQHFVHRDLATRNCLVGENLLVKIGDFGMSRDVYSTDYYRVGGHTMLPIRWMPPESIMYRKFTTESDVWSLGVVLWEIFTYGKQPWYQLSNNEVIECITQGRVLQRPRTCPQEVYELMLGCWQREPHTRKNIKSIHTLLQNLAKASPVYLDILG
# Method: (§1) The cell-free assays (binding assays) were performed in white 96-well plates, based on the protocol used for western-blotting or ELISA ([Baeza-Raja et al., 2016]; [Das et al., 2015]). The plates were precoated with anti-GFP, anti-FLAG, anti-TRK or anti-TRKB antibody (1:1000) in carbonate buffer (pH 9.8), ON at 4°C. Following blocking with 3% BSA in PBS buffer (2 h at RT), 120 ug of total protein from each sample (of lysates from HEK293T cells transfected to overexpress GFP-TRKB.wt or GFP-TRKB.Y433F) were added and incubated overnight at 4°C under agitation. […] The luminescence was determined via HRP-conjugated streptavidin (1:10000, 1h, RT) activity reaction with ECL by a plate reader. The luminescence signal from blank wells (containing all the reagents but the sample lystates, substituted by the blocking buffer) was used as background. The specific signal was then calculated by subtracting the values of blank wells from the values of the samples with matched concentration of the biotinylated ligand. For Figure 2E, the precipitated TRKB.wt or Y433F was incubated with tritiated imipramine (0-30μM) and the radioactive emission of the ligand was determined by scintillation (OptiPhase Supermix cocktail: #1200-439; MicroBeta2, Perkin-Elmer). The scintillation signal from blank wells was used as background, and the specific signal was then calculated by subtracting the values of blank wells from the values of the samples with matched concentration of the radioactive ligand.
# [1] = tested on: GluR1 subunit of AMPA receptors; assay: Surface GluR1 ELISA in rat cortical cells; assay type: cell-based; settings: TRKB inhibitors
# Method: Briefly, the MG87.TRKB cells or primary cortical cells from rat or mouse embryos, cultivated in clear bottom 96-well plates (ViewPlate 96, Perkin Elmer), were washed with ice-cold PBS and fixed with 100μl of 4% PFA per well. […] Following washing, the samples were incubated with HRP-conjugated anti-goat or anti-rabbit IgG (1:5000 in blocking buffer) for 1h at RT. The cells were washed 4x with 200μl of PBS for 10 min each. Finally, the chemiluminescent signal generated by reaction with ECL was analyzed in a plate reader.
# [2] = tested on: TRKB autophosphorylation (TRKB:pY); assay: TRKB:pY ELISA in cultured cortical cells; assay type: cell-based, rat; settings: for rescue of BDNF-induced pTRKB response under high CHOL: cholesterol 50 μM, drug 10 μM 15 min, BDNF 10 ng/ml 15 min
# Method: (§2) The TRKB:pY (phosphorylated TRKB), TRKB:PLC-γ1, PLC-γ1:pTRKB.Y816 interactions and were determined by ELISA, based on the general method described in literature ([Antila et al., 2014]; [Fred et al., 2019]), with minor adjustments. Briefly, white 96-well plates (OptiPlate 96F-HB, Perkin Elmer) were coated with capturing anti-TRKB or PLC-γ1 antibody (1:1000) in carbonate buffer (pH = 9.8) overnight (ON) at 4°C. Following a blocking step with 2%BSA in TBS-T (2 h, RT), samples were incubated ON at 4°C. The incubation with antibody against pTRKB.Y816, PLC-γ1 or pY (1:2000, ON, 4°C) was followed by HRP-conjugated anti-Rb IgG (1:5000, 2h, RT) or HRP-conjugated streptavidin (1:10000, 2h, RT). Finally, the chemiluminescent signal generated by the reaction with ECL was analyzed in a plate reader (Varioskan Flash, Thermo Scientific).
# TRKB:PLC-γ1 interaction [3] = assay: TRKB:PLC-γ1 interaction ELISA in cortical cells; assay type: cell-based, rat
# Method: as §2
# TRKB:PLC-γ1 interaction [4] = assay: TRKB:PLC-γ1 interaction ELISA in MG87 cells expressing TRKB; assay type: cell-based, mouse; settings: bCDX 2 mM/30 min pre-treatment
# Method: The cell line NIH 3T3 (mouse fibroblasts) stably transfected to express TRKB or TRKA (MG87.TRKB or MG87.TRKA, respectively) were used for in vitro assays ([Antila et al., 2014]), N2A and HEK293T cells were used to overexpress GFP-tagged TRKB for binding assays. The cells were maintained at 5% CO2, 37°C in Dulbecco’s Modified Eagle’s Medium (DMEM, containing 10% fetal calf serum, 1% penicillin/streptomycin, 1% L-glutamine, and, in the case of MG87.TRKB cells, with […] of G418). The cell lines used in the present study were not authenticated or genotyped for sex.
# as §2, with “The incubation with antibody against pTRKB.Y816, PLC-γ1 or pY (1:2000, ON, 4°C) was followed by HRP-conjugated anti-Rb IgG (1:5000, 2h, RT) or HRP-conjugated streptavidin (1:10000, 2h, RT).” left out
# surface TRKB = assay: Surface TRKB ELISA in primary cortical neurons; assay type: cell-based, rat
# Method: The surface levels of TRKB were also determined by ELISA ([Zheng et al., 2008]). Briefly, the MG87.TRKB cells or primary cortical cells from rat or mouse embryos, cultivated in clear bottom 96-well plates (ViewPlate 96, Perkin Elmer), were washed with ice-cold PBS and fixed with 100μl of 4% PFA per well. After washing with PBS and blocking with PBS containing 5% nonfat dry milk and 5% BSA, the samples were incubated with primary anti-TRKB antibody (R&D Systems, #AF1494, 1:1000 in blocking buffer) or anti-GluR1 subunit of AMPA receptors (CST, #8850, 1:2000 in blocking buffer) ON at 4°C. Following washing, the samples were incubated with HRP-conjugated anti-goat or anti-rabbit IgG (1:5000 in blocking buffer) for 1h at RT. The cells were washed 4x with 200μl of PBS for 10 min each. Finally, the chemiluminescent signal generated by reaction with ECL was analyzed in a plate reader.
# [5] = molecular target: GFP-tagged TRKB mutated at Y433 (GFP-TRKB.Y433F) (UniProt P15209); assay: ELISA; cell-free ligand binding assay in white 96-well plates: GFP-TRKB from 120 ug HEK293T lysate captured on antibody-coated wells (anti-GFP or anti-TRKB), washed, ligand added; read-out by HRP-streptavidin and ECL as told for biotinylated ligands; the conditions for BDNF are not told
# Chain of GFP-tagged TRKB mutated at Y433 (GFP-TRKB.Y433F) (P15209 32-821 Y433F): as the sequence (P15209 32-821) above, with Y402F counted along it
# [6] = molecular target: GFP-tagged TRKB wild type (GFP-TRKB.wt), neurotrophic tyrosine kinase receptor 2 (UniProt P15209); assay: as above
# Chain of GFP-tagged TRKB wild type (GFP-TRKB.wt), neurotrophic tyrosine kinase receptor 2 (P15209 32-821): as the sequence (P15209 32-821) above
# TRKB.Y433F = molecular target: T1, TRKB.Y433F (Mus musculus, UniProt P15209, Y433F); assay: Cell-free ligand binding assay, TRKB.Y433F mutant; settings: tritiated imipramine, biotinylated R,R-HNK
# T1 construct: wild-type GFP-tagged full length TRKB or the GFP-tagged Y433F TRKB mutant; host or cells: HEK293T
# T1 sequence (P15209 32-821 Y433F): as the sequence (P15209 32-821) above, with Y402F counted along it
# Method: as §1
compound,measurement,setting,value
"N[C@]1(c2ccccc2Cl)CCC[C@H](O)C1=O [S,S-HNK, 2S,6S-HNK]",displacement of biotinylated FLX from TRKB,TRKB,"weak, if any, displacement"
same,"displacement of bound R,R-HNK from TRKB","TRKB; biotinylated R,R-HNK 1 μM",failed to displace
O=C(NCCN1CCOCC1)c1ccc(Cl)cc1 [moclobemide],Ki,TRKB,1.51 µM
COc1ccc(C(CN(C)C)C2(O)CCCCC2)cc1 (stereo not drawn) [venlafaxine],Ki,TRKB,2.08 µM
same,displacement of biotinylated FLX from TRKB,TRKB,readily displaced
O=C(Nc1ccccc1C(=O)NC1CCCCNC1=O)c1cc2ccccc2s1 (stereo not drawn) [ANA12],"effect on FLX- and R,R-HNK-induced increase in surface GluR1",[1],prevented
OCCN1CCN(CCC=C2c3ccccc3Sc3ccc(C(F)(F)F)cc32)CC1 [flupenthixol],rescue of BDNF-induced pTRKB response under high CHOL,[2],failed to rescue
COC(=O)[C@@]1(O)C[C@H]2O[C@]1(C)n1c3ccccc3c3c4c(c5c6ccccc6n2c5c31)C(=O)NC4 [k252a],"effect on FLX- and R,R-HNK-induced increase in surface GluR1",[1],prevented
"OC[C@H]1O[C@@H]2O[C@H]3[C@H](O)[C@@H](O)[C@@H](O[C@H]4[C@H](O)[C@@H](O)[C@@H](O[C@H]5[C@H](O)[C@@H](O)[C@@H](O[C@H]6[C@H](O)[C@@H](O)[C@@H](O[C@H]7[C@H](O)[C@@H](O)[C@@H](O[C@H]8[C@H](O)[C@@H](O)[C@@H](O[C@H]1[C@H](O)[C@H]2O)O[C@@H]8CO)O[C@@H]7CO)O[C@@H]6CO)O[C@@H]5CO)O[C@@H]4CO)O[C@@H]3CO [βCDX, beta-cyclodextrin]",effect on block of BDNF-induced pTRKB by high cholesterol,"[2]; bCDX 30 min, cholesterol 100 μM/15 min, BDNF 10 ng/ml/15 min",reverses the block
same,effect on BDNF-induced increase in TRKB-PLC-γ1 interaction,"TRKB:PLC-γ1 interaction [3]; bCDX 2 mM, 30 min",prevents
same,effect on antidepressant-induced TRKB:PLC-γ1 interaction,"TRKB:PLC-γ1 interaction [3]; bCDX 2 mM/30 min pretreatment, FLX, imipramine, KET, R,R-HNK",blocked
same,blockade of CHOL effect on TRKB:PLC-γ1 interaction,TRKB:PLC-γ1 interaction [4],blocked
same,effect on fluoxetine-induced increase in TRKB surface exposure,surface TRKB,blocked
"CN[C@]1(c2ccccc2Cl)CCCCC1=O [esketamine, S-ketamine]",Ki,TRKB,2.86 µM
"brain-derived neurotrophic factor (BDNF), biotinylated rh-BDNF (ligand)",Kd,[5],2.9 pM
same,Kd,[6],3.1 pM
CC(C)NCC(O)c1ccc(O)c(O)c1 (stereo not drawn) [isoproterenol],displacement of biotinylated FLX from TRKB,TRKB,"weak, if any, displacement"
CN(C)CCCN1c2ccccc2CCc2ccccc21 [imipramine],affinity to TRKB.Y433F compared with wild-type TRKB,TRKB.Y433F,much lower than to the wild-type TRKB
same,TRKB interaction with PLC-γ1,TRKB:PLC-γ1 interaction [3]; rat cortical cells,increased TRKB interaction with PLC-γ1
same,Ki,TRKB,1.03 µM
CN(C)CCCN1c2ccccc2Sc2ccc(Cl)cc21 [chlorpromazine],rescue of BDNF-induced pTRKB response under high CHOL,[2],failed to rescue
same,displacement of biotinylated FLX from TRKB,TRKB,"weak, if any, displacement; also recorded: failed to displace"
O=c1[nH]c2ccccc2n1C1CCN(CCCC(c2ccc(F)cc2)c2ccc(F)cc2)CC1 [pimozide],rescue of BDNF-induced pTRKB response under high CHOL,[2],failed to rescue
CN(C)CCOC(c1ccccc1)c1ccccc1 [diphenhydramine],displacement of biotinylated FLX from TRKB,TRKB,"weak, if any, displacement"
